# Test results reported in patent US12448399B2, “Cereblon-based KRAS degrading PROTACs and uses related thereto” (Arvinas Operations, Inc., priority 2023, dated 2025).
# Target: T1, KRas-G12D (Homo sapiens, UniProt P01116, G12D)
# T1 construct: insert the HiBiT tag onto the N-terminus of one or more of the endogenous KRas alleles; host or cells: AsPC-1 HiBiT-KRasG12D knock-in clone (one tagged allele, two untagged KRasG12D alleles)
# Test: HiBiT Degradation Assay (G12D), AsPC-1 HiBiT-KRasG12D cells, 24 hr
# Format: cell-based
# Settings: for Dmax: ASPC1, AsPC-1 cells, maximum degradation observed; for DC50: AsPC-1 cells
# Outline: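 Degradation was read after 24 hr compound exposure (0.5% DMSO, 37° C) by Nano-Glo HiBiT lytic luminescence in AsPC-1 cells carrying a HiBiT tag on one of three KRasG12D alleles. Signal relative to DMSO gave DC50 and Dmax by 4-parameter fit; alamar blue fluorescence monitored cytotoxicity.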
# T1 sequence (P01116 1-188 isoform P01116-2 G12D): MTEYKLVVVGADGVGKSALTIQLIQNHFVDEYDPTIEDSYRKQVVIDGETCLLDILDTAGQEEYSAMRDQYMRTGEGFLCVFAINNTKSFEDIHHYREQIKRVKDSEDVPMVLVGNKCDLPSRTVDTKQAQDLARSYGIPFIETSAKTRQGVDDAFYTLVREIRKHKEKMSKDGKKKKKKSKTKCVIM
Structure (SMILES),Dmax [%],DC50 [µM]
"C#Cc1c(F)ccc2cc(O)cc(-c3ncc4c(N5CC6CCC(C5)N6)nc(OCCN5CCC(CC6CCN(CC7CCN(c8cc(C)c9c(c8F)CN(C8CCC(=O)NC8=O)C9=O)CC7)CC6)CC5)nc4c3F)c12 (centres unmarked) [Compound 149, 3-{5-[4-({4-[(1-{2-[(4-{3,8-diazabicyclo[3.2.1]octan-3-yl}-7-(8-ethynyl-7-fluoro-3-hydroxynaphthalen-1-yl)-8-fluoropyrido[4,3-d]pyrimidin-2-yl)oxy]ethyl}piperidin-4-yl)methyl]piperidin-1-yl}methyl)piperidin-1-yl]-4-fluoro-7-methyl-1-oxo-2,3-dihydro-1H-isoindol-2-yl}piperidine-2,6-dione]",> 70,< 5.1
C#Cc1c(F)ccc2cc(O)cc(-c3ncc4c(N5CC6CCC(C5)N6)nc(OCCN5CCC6(CC5)CN(CC5CCN(c7cc(C)c8c(c7F)CN(C7CCC(=O)NC7=O)C8=O)CC5)C6)nc4c3F)c12 (centres unmarked) [Compound 150],–,< 5.1
"C#Cc1c(F)ccc2cc(O)cc(-c3ncc4c(N5CC6CCC(C5)N6)nc(OC[C@@H]5C[C@@H](OC6CCN(CC7CCN(c8cc(C)c9c(c8F)CN(C8CCC(=O)NC8=O)C9=O)CC7)CC6)CN5C)nc4c3F)c12 (stereo partly drawn) [Compound 151, 3-(5-{4-[(4-{[(3R,5S)-5-{[(4-{3,8-diazabicyclo[3.2.1]octan-3-yl}-7-(8-ethynyl-7-fluoro-3-hydroxynaphthalen-1-yl)-8-fluoropyrido[4,3-d]pyrimidin-2-yl)oxy]methyl}-1-methylpyrrolidin-3-yl]oxy}piperidin-1-yl)methyl]piperidin-1-yl}-4-fluoro-7-methyl-1-oxo-2,3-dihydro-1H-isoindol-2-yl)piperidine-2,6-dione]",> 70,< 5.1
C#Cc1c(F)ccc2cc(O)cc(-c3ccc4c(N5CC6CCC(C5)N6)nc(OCCN5CCC(CC6CCN(CC7CCN(c8ccc9c(c8F)CN(C8CCC(=O)NC8=O)C9=O)CC7)CC6)CC5)nc4c3F)c12 (centres unmarked) [Compound 152],–,< 5.1
"C#Cc1c(F)ccc2cc(O)cc(-c3ncc4c(N5CC6CCC(C5)N6)nc(OCCN5CCC6(CC5)CCN(CC5CCN(c7cc(C)c8c(c7F)CN(C7CCC(=O)NC7=O)C8=O)CC5)CC6)nc4c3F)c12 (centres unmarked) [Compound 153, 3-(5-{4-[(9-{2-[(4-{3,8-diazabicyclo[3.2.1]octan-3-yl}-7-(8-ethynyl-7-fluoro-3-hydroxynaphthalen-1-yl)-8-fluoropyrido[4,3-d]pyrimidin-2-yl)oxy]ethyl}-3,9-diazaspiro[5.5]undecan-3-yl)methyl]piperidin-1-yl}-4-fluoro-7-methyl-1-oxo-2,3-dihydro-1H-isoindol-2-yl)piperidine-2,6-dione]",> 70,< 5.1
"C#Cc1c(F)ccc2cc(O)cc(-c3ncc4c(N5CC6CCC(C5)N6)nc(OCCN5CCC(CN6CC7(CCN(c8cc(C)c9c(c8F)CN(C8CCC(=O)NC8=O)C9=O)CC7)C6)CC5)nc4c3F)c12 (centres unmarked) [Compound 154, 3-(5-{2-[(1-{2-[(4-{3,8-diazabicyclo[3.2.1]octan-3-yl}-7-(8-ethynyl-7-fluoro-3-hydroxynaphthalen-1-yl)-8-fluoropyrido[4,3-d]pyrimidin-2-yl)oxy]ethyl}piperidin-4-yl)methyl]-2,7-diazaspiro[3.5]nonan-7-yl}-4-fluoro-7-methyl-1-oxo-2,3-dihydro-1H-isoindol-2-yl)piperidine-2,6-dione]",> 70,< 5.1
C#Cc1c(F)ccc2cccc(-c3ncc4c(N5CC6CCC(C5)N6)nc(OCCN5CCC(CN6CC7(CCN(c8ccc9c(c8F)CN(C8CCC(=O)NC8=O)C9=O)CC7)C6)CC5)nc4c3F)c12 (centres unmarked) [Compound 155],–,> 1
C#Cc1c(F)ccc2cccc(-c3ncc4c(N5CC6CCC(C5)N6)nc(OCCN5CCC6(CC5)CCN(CC5CCN(c7ccc8c(c7F)CN(C7CCC(=O)NC7=O)C8=O)CC5)CC6)nc4c3F)c12 (centres unmarked) [Compound 156],–,> 1
C#Cc1c(F)ccc2cccc(-c3ncc4c(N5CC6CCC(C5)N6)nc(OCCN5CCC(CC6CCN(CC7CCN(c8cccc9c8CN(C8CCC(=O)NC8=O)C9=O)CC7)CC6)CC5)nc4c3F)c12 (centres unmarked) [Compound 157],–,> 1
CCc1cccc2c(F)c(O)cc(-c3ncc4c(N5CC6CCC(C5)N6)nc(OCCN5CCC(CC6CCN(c7cccc8c7CN(C7CCC(=O)NC7=O)C8=O)CC6)CC5)nc4c3F)c12 (centres unmarked) [Compound 158],≤ 25,> 1
"C#Cc1c(F)ccc2cc(O)cc(-c3ncc4c(N5CC6CCC(C5)N6)nc(OCCN5CCC(CN6CCN(CC7CCN(c8ccc9c(c8F)n(C(C)C)c(=O)n9C8CCC(=O)NC8=O)CC7)CC6)CC5)nc4c3F)c12 (centres unmarked) [Compound 159, 3-{5-[4-({4-[(1-{2-[(4-{3,8-diazabicyclo[3.2.1]octan-3-yl}-7-(8-ethynyl-7-fluoro-3-hydroxynaphthalen-1-yl)-8-fluoropyrido[4,3-d]pyrimidin-2-yl)oxy]ethyl}piperidin-4-yl)methyl]piperazin-1-yl}methyl)piperidin-1-yl]-4-fluoro-2-oxo-3-(propan-2-yl)-2,3-dihydro-1H-1,3-benzodiazol-1-yl}piperidine-2,6-dione]",> 70,< 5.1
"C#Cc1c(F)ccc2cc(O)cc(-c3ncc4c(N5CC6CCC(C5)N6)nc(OCCN5CCC(C)(CN6CCN(CC7CCN(c8ccc9c(c8)n(C)c(=O)n9C8CCC(=O)NC8=O)CC7)CC6)CC5)nc4c3F)c12 (centres unmarked) [Compound 160, 3-{5-[4-({4-[(1-{2-[(4-{3,8-diazabicyclo[3.2.1]octan-3-yl}-7-(8-ethynyl-7-fluoro-3-hydroxynaphthalen-1-yl)-8-fluoropyrido[4,3-d]pyrimidin-2-yl)oxy]ethyl}-4-methylpiperidin-4-yl)methyl]piperazin-1-yl}methyl)piperidin-1-yl]-3-methyl-2-oxo-2,3-dihydro-1H-1,3-benzodiazol-1-yl}piperidine-2,6-dione]",> 70,< 5.1
"C#Cc1c(F)ccc2cc(O)cc(-c3ncc4c(N5CC6CCC(C5)N6)nc(OCCN5CCC(C)(CC6CCN(CC7CCN(c8ccc9c(c8)n(C)c(=O)n9C8CCC(=O)NC8=O)CC7)CC6)CC5)nc4c3F)c12 (centres unmarked) [Compound 161, 3-{5-[4-({4-[(1-{2-[(4-{3,8-diazabicyclo[3.2.1]octan-3-yl}-7-(8-ethynyl-7-fluoro-3-hydroxynaphthalen-1-yl)-8-fluoropyrido[4,3-d]pyrimidin-2-yl)oxy]ethyl}-4-methylpiperidin-4-yl)methyl]piperidin-1-yl}methyl)piperidin-1-yl]-3-methyl-2-oxo-2,3-dihydro-1H-1,3-benzodiazol-1-yl}piperidine-2,6-dione]",> 70,< 5.1
"C#Cc1c(F)ccc2cc(O)cc(-c3ncc4c(N5CC6CCC(C5)N6)nc(OCCN5CCN(CC6CCN(CC7CCN(c8ccc9c(c8)n(C)c(=O)n9C8CCC(=O)NC8=O)CC7)CC6)CC5(C)C)nc4c3F)c12 (centres unmarked) [Compound 162, 3-{5-[4-({4-[(4-{2-[(4-{3,8-diazabicyclo[3.2.1]octan-3-yl}-7-(8-ethynyl-7-fluoro-3-hydroxynaphthalen-1-yl)-8-fluoropyrido[4,3-d]pyrimidin-2-yl)oxy]ethyl}-3,3-dimethylpiperazin-1-yl)methyl]piperidin-1-yl}methyl)piperidin-1-yl]-3-methyl-2-oxo-2,3-dihydro-1H-1,3-benzodiazol-1-yl}piperidine-2,6-dione]",> 70,< 5.1
